Laboratory results: publication PMC11357992, “Non-invasive mapping of systemic neutrophil dynamics upon cardiovascular injury” (Nature Cardiovascular Research, 2023)
Where “and” joins values, the source holds several entries; their conditions need not be identical. Equal entries are not always repeated. Where no end group is shown, it is not given here. Side-chain parts run from the residue outwards. rhodamine‑labelled PEGylated perfluoro‑15‑crown‑5 ether nanoemulsion = not defined here; carboxyfluorescein = N-terminal fluorescence label (CF)

Key:
[1] = system: murine neutrophils; assay: Cell surface activation markers CD11b, CD62L, CD63 on murine blood neutrophils; assay type: in vivo, mouse; conditions: mNPPFCs 1 mM per kg BW i.v., blood 2 h later; LPS = LPS-doped Matrigel s.c. 24 h before (positive control); individual experiments, only first lines of sheet shown
Description: […] per kg BW ^mNPPFCs or saline were injected i.v., and, 2 h later, neutrophils were isolated from the blood and stained for CD11b, CD62L and CD63. As a positive control, mice were implanted with LPS-doped Matrigel 24 h before blood withdrawal.
(§1) A total of 1 × 10^6 isolated human neutrophils were incubated with 50 µl ml^−1 ^hNPPFCs, 1 µg ml^−1 LPS or only DMEM for 1 h at 37 °C followed by intense washing with MACS buffer. Afterward, 1 × 10^5 cells were transferred into 96-well plates and stained for CD11b and CD63 (eBioscience, clone HSC6) or CD66b (eBioscience, clone G10F5) for 20 min at 4 °C. After two washing steps with MACS buffer, cells were analyzed by flow cytometry. A total of 1 × 10^5 isolated murine neutrophils were transferred into a 96-well plate and stained for CD11b, CD62L and CD63 for 20 min at 4 °C. After two washing steps with MACS buffer, cells were analyzed by flow cytometry.
Extended Data Fig. 9 Impact of ^mNPPFCs on murine neutrophils. a, Differentially expressed genes (DEGs) identified by bulk RNA sequencing of murine blood neutrophils after intravenous injection of ^mNPPFCs, ^ConPFCs or NaCl (Ctrl) as control. […] In total 25655 RNA transcripts were analyzed. b, Cell surface expression of CD11b, CD62L, CD63 on blood derived murine neutrophils after intravenous application of NaCl (Ctrl) or ^mNPPFCs. As a positive control, matrigel doped with 50 µg LPS was subcutaneously implanted into the neck of mice and after 24 h, neutrophils were isolated from the blood and analyzed by flow cytometry. c, Impact of ^mNPPFC incubation on neutrophil migration, phagocytosis and release of reactive oxygen species (ROS). Migration was determined in vivo by assessment of the infiltration of neutrophils into a matrigel/LPS plug; phagocytosis was determined by intravenous injection of FITC-labelled E.coli into mice and the subsequent removal and flow cytometric analysis of blood neutrophils; extracellular ROS were measured within the cell supernatant of blood neutrophils by oxidation of DHE (dihydroethidium) followed by UPLC analysis. […]

[2] = system: murine neutrophils; assay: 19F MRI of isolated murine neutrophils incubated with mNPPFCs/ConPFCs; assay type: cell-based, mouse; conditions: 4 × 10^6 bone marrow neutrophils incubated 3 h at 37 °C with 50 µl PFCs; individual experiments
Description: A total of 4 × 10^6 neutrophils isolated from bone marrow with the EasySep Mouse Neutrophil Enrichment Kit (Stemcell Technologies) were resuspended in 1 ml DMEM and incubated for 3 h with 50 µl ^mNPPFCs or ^ConPFCs at 37 °C. Afterward, cells were washed three times with PBS, fixed with PFA, pelleted by centrifugation and analyzed by ^1H/^19F MRI.
Extended Data Fig. 2 Specific targeting of neutrophils by ^mNPPFCs. a, Flow cytometric analysis of murine blood leukocytes incubated with ^mNPPFCs over 80 min illustrating their predominant uptake by neutrophils (red) as compared to monocytes (blue) and lymphocytes (gray). b, To further validate specificity, binding of CD177 mAb as well as incorporation of ^mNPPFCs under basal and LPS-stimulated conditions were determined. Almost no binding/uptake into classical or non-classical monocytes as well as macrophages or eosinophils could be detected. […] Subsequently, cells were analyzed by ^1H/^19F MRI. Left: ^1H/^19F MRI of centrifugation tubes with neutrophils treated with ^mNPPFCs (lower panel) or ^ConPFCs (upper panel). […] Quantification of ^19F signals (4th column) clearly indicate substantial stronger ^19F uptake in ^mNPPFC-treated neutrophils (red) compared to cells incubated with ^ConPFCs (gray); a.u. = arbitrary units. […]

[3] = system: murine neutrophils; assay: Migration of murine neutrophils into Matrigel/LPS plug after mNPPFC injection; assay type: in vivo, mouse; conditions: in the presence of the targeting PFCs
Description: […] per kg BW ^mNPPFCs or saline were injected i.v., and, after 1 h, LPS-doped Matrigel was implanted s.c. into the neck of mice. After 2 h, the Matrigel plug was excised, and infiltrated neutrophils were isolated and stained with anti-CD11b and anti-Ly6G antibodies for flow cytometry.
A total of 1 × 10^6 isolated human neutrophils were incubated with or without 50 µl ^hNPPFCs for 1 h at 37 °C in 1 ml DMEM. After washing with DMEM, 1 × 10^5 of these cells were placed in a Boyden chamber containing 200 µl DMEM. The lower part of the chamber contained 100 ng ml^−1 IL-8 in 1 ml DMEM. After 1 h in an incubator, the flow through was collected, and the number of neutrophils was counted by flow cytometry. Murine neutrophils were isolated from Matrigel–LPS plugs and stained for Ly6G. Afterward, cells were washed twice, and the number of neutrophils was determined by flow cytometry.
Extended Data Fig. 9 Impact of ^mNPPFCs on murine neutrophils. a, Differentially expressed genes (DEGs) identified by bulk RNA sequencing of murine blood neutrophils after intravenous injection of ^mNPPFCs, ^ConPFCs or NaCl (Ctrl) as control. […] In total 25655 RNA transcripts were analyzed. b, Cell surface expression of CD11b, CD62L, CD63 on blood derived murine neutrophils after intravenous application of NaCl (Ctrl) or ^mNPPFCs. […]

[4] = system: human neutrophils; assay: Cell surface activation markers CD11b, CD63, CD66b on human neutrophils; assay type: cell-based; conditions: 50 µl ml^−1 hNPPFCs or 1 µg ml^−1 LPS, 1 h, 37 °C
Description: as §1

Substance | cell surface expression of CD11b on blood derived murine neutrophils, flow cytometry [1] | cell surface expression of CD62L on blood derived murine neutrophils, flow cytometry [1] | cell surface expression of CD63 on blood derived murine neutrophils, flow cytometry [1] | 19F signal of neutrophil cell pellet (19F MRI) [2] | migration of murine neutrophils [3] | expression of CD11b, CD63 and CD66b on human neutrophils [4]
mNPPFCs: PEGylated rhodamine-labeled perfluoro-15-crown-5 ether nanoemulsion (maleimide PFCs) coupled with murine neutrophil-specific peptide mNP (carboxyfluorescein-DFYKPMPNLRITGGGC([maleimide‑PEG2000‑DSPE-rhodamine‑labelled PEGylated perfluoro‑15‑crown‑5 ether nanoemulsion]); reading uncertain; also: printed as DFYKPMPNLRIT-GGG-C) | 2655 and 2691 and 3361 and 1842 | 1971 and 1966 and 1558 and 2425 | 135 and 126 and 105 | 349357 a.u. and 181876 a.u. and 297311 a.u. and 383564 a.u. and 306579 a.u. | unaltered | 
hNPPFCs: PEGylated rhodamine-labeled perfluorocarbon nanoemulsion coupled with human neutrophil-specific peptide hNP (carboxyfluorescein-DLVTSKLQVGGGC; also: C-terminal Cys coupled via maleimide-PEG2000-DSPE to rhodamine-labelled perfluorocarbon nanoemulsion) |  |  |  |  |  | did not affect expression of these proteins
